Data on one molecule can be found in patent publication US20100256145A1, “USE OF KCNQ POTASSIUM CHANNEL OPENERS FOR REDUCING SYMPTOMS OF OR TREATING DISORDERS OR CONDITIONS WHEREIN THE DOPAMINERGIC SYSTEM IS DISRUPTED” (H. LUNDBECK A/S, priority 2007, published 2010).

Series [1] concerns dopaminergic neurons in the ventral tegmental area. The series is described as follows: Spontaneous DA cell firing in the VTA of anaesthetised rats (extracellular single-cell recordings). The note with it: mean ± SEM.
Protocol: Subjects. Male Wistar rats (Harlan, The Netherlands) weighing 270-340 g are used. The animals are housed under a 12-hr light/dark cycle under controlled conditions for regular in-door temperature (21±2° C.) and humidity (55±5%) with food and tap water available ad libitum.
Administration of compound. […] These i.v. doses match the s.c. dose range of 0-10 mg/kg.
Statistical analysis. Drug effects are assessed by statistical comparison of the mean firing rate calculated from the 2-3 min period immediately before the first drug administration (baseline) to the mean firing rate calculated from at least 60 s at the maximal drug effect. Data are analysed statistically by a one-way analysis of variance (ANOVA) followed by Student-Newman-Keuls post hoc test. A p-value less than 0.05 is considered significant.
Series [2] has as its system extracellular DA levels in the nucleus accumbens. As to the kind of experiment: Microdialysis: amphetamine-evoked DA levels in the nucleus accumbens of freely moving rats. The conditions noted are these: for Normalised DA level in the nucleus accumbens: compound 8.1 mg/kg s.c., D-amphetamine 0.5 mg/kg s.c. 30 min later. The format is in vivo, rat. The procedure:
Subjects. Male Sprague-Dawley rats (Charles River), initially weighing 275-300 g, are used.
Surgery. Animals are anaesthetized with hypnorm/dormicum (2 ml/kg s.c.) and intracerebral guide cannulas (CMA/12) are stereotaxically implanted, positioning the dialysis probe tip in the nucleus accumbens (co-ordinates: 1.7 mm anterior to bregma, −1.2 mm lateral to bregma, 8.0 mm ventral to the dura). Anchor screws and acrylic cement is applied for fixation of the guide cannula. The body temperature of the animals is maintained at 37° C. by means of a rectal probe and a heating plate. The rats are allowed to recover from surgery for 2 days, housed singly in cages.
Experimental procedure. On the day of the experiment, a microdialysis probe (CMA/12, 0.5 mm diameter, 2 mm length) is inserted through the guide cannula of the conscious animal. The probes are connected to a microinjection pump via a dual channel swivel which allowed the animals unrestricted movements. Perfusion of the microdialysis probe with filtered Ringer solution (145 mM NaCl, 3 mM KCl, 1 mM MgCl2, 1.2 mM CaCl2) is maintained for the duration of the experiment at a constant flow rate of 1 μL/min. After 180 min of stabilisation, the experiments are initiated. Dialysates are collected every 20 min. After the experiments the rats are sacrificed by decapitation, their brains removed, frozen and sliced for probe placement verification.
Administration of compounds. […] Thirty minutes later, D-amphetamine sulphate (0.5 mg/kg s.c.) is administered.
Analysis of dialysate. The concentration of DA in the dialysates is assessed by means of HPLC with electrochemical detection. The dialysate constituents are separated by reverse phase liquid chromatography (ODS 150×3 mm, […]). Mobile phase consists of 90 mM NaH2PO4, 50 mM sodium citrate, 367 mg/l sodium 1-octanesulfonic acid, 50 μM EDTA and 8% acetonitrile (pH 4.0) at a flow rate of 0.5 ml/min. Electrochemical detection of DA is accomplished using a coulometric detector; potential set at E1=−75 mV and E2=300 mV (guard cell at 350 mV) (Coulochem II, ESA). The dialysate levels of DA in the three dialyse samples preceding the administration of compound are averaged and used as baseline level of DA (100%)
Statistical analysis. The dialysate levels of DA in the three dialyse samples preceding the administration of compound are averaged and used as baseline level of DA (100%). Data are analysed using repeated measure analyses of variance followed by post hoc tests (Tukey test), when appropriate. *P<0.05 were considered significant.

Series [3] has as its system baseline motility. The series is described as follows: Baseline motility in mice (vehicle-pretreated, vehicle-challenged). The conditions noted are these: s.c., Std. Dev. in brackets. Format: in vivo, mouse. As to the method: Subjects. Male NMRI mice (Charles River) weighing approx. 35 g are used. […] 12 mice are used pr experimental group.
Experimental procedure. All mice are pre-treated once daily for five days with either d-amphetamine sulphate (2.5 mg/kg s.c.) or saline (10 ml/kg). For the 17 days between the last day of pre-treatment and the test day, the animals are kept in their homecage receiving the care as described above. The experiment is performed under normal light conditions in an undisturbed room. The mice are treated with test substance or vehicle and placed individually in the test cages for 30 min. The mice are then challenged with D-amphetamine sulphate (1.25 mg/kg s.c.) or saline (5 ml/kg) and replaced in the test-cage and data acquisition is begun. 5×8 infrared light sources and photocells interspaced by 4 cm monitor the locomotor activity. The light beams cross the cage 1.8 cm above the bottom of the cage.
Administration of compounds.
Data analyses. […] Similarly an ED50 for inhibiting baseline motility is calculated by expressed the motility response in vehicle-pretreated, vehicle-challenged, drug-treated animals relative to the baseline motility response. A therapeutic index value is subsequently calculated by dividing the first ED50 by the second.

Marks after values point to notes of the source that are not given here.

In the case of `CCOC(=O)Nc1ccc(NCc2ccc(F)cc2)cc1N` [Compound 1, reference compound], the “Spontaneous DA cell firing rate in the VTA” value in series [1] (cumulated dose 0.3 mg/kg i.v.) was 95.4 ± 5.0 (4) percentage of baseline firing rate; in series [1] (cumulated dose 1.0 mg/kg i.v.) it was 90.5 ± 4.6 (5) percentage of baseline firing rate; in series [1] (cumulated dose 2.0 mg/kg i.v.), 81.1 ± 5.1 (5) percentage of baseline firing rate; in series [1] (cumulated dose 4.0 mg/kg i.v.), 67.1 ± 3.7 (4) percentage of baseline firing rate; in series [1] (cumulated dose 6.0 mg/kg i.v.), 60.6 ± 0.7 (2) percentage of baseline firing rate. Moreover, the “Normalised DA level in the nucleus accumbens” value in series [2] (Time 0 min (baseline sample)) was 96 ± 6 % of baseline; in series [2] (Time 20 min) it was 160 ± 11 % of baseline; in series [2] (Time 40 min), 241 ± 33 % of baseline; in series [2] (Time 60 min), 221 ± 26* % of baseline; in series [2] (Time 80 min), 217 ± 14* % of baseline; in series [2] (Time 100 min), 173 ± 9 % of baseline. The “Normalised DA level in the nucleus accumbens” value is 139 ± 9 % of baseline in series [2] (Time 120 min), 120 ± 9 % of baseline in series [2] (Time 140 min), 99 ± 6 % of baseline in series [2] (Time −20 min (baseline sample)) and 105 ± 3 % of baseline in series [2] (Time −40 min (baseline sample)). Besides, in series [2] (without amphetamine, data not shown), the “Effect on the basal extracellular DA level in the nucleus accumbens” value is “None of the latter three compounds significantly affects the basal extracellular DA level”. The “Inhibition of baseline motility, ED50” value in series [3] is 7.6 (1.3) mg/kg.
